In ChEMBL document CHEMBL2010722, “Structure-activity relationship study of beta-carboline derivatives as haspin kinase inhibitors” (Bioorg Med Chem Lett, 2012):

Assays:
[1] = target: Protein kinase C alpha type (Homo sapiens) (UniProt P17252); test: Inhibition of PKCalpha at 10 uM
[2] = target: Ephrin type-A receptor 7 (Homo sapiens) (UniProt Q15375); test: Inhibition of EPHA7 at 10 uM
[3] = target: Mitogen-activated protein kinase 13 (Homo sapiens) (UniProt O15264); test: Inhibition of p38delta at 10 uM
[4] = target: CDK6/cyclin D3 (Homo sapiens) (UniProt P30281+Q00534); test: Inhibition of CDK6-CycD3 at 10 uM; type: protein-complex assay
[5] = system: Tyrosine-protein kinase ABL1 (Homo sapiens), P00519 [E255K]; test: Inhibition of ABL E255K mutant at 10 uM
[6] = target: Calcium/calmodulin-dependent protein kinase type II subunit alpha (Homo sapiens) (UniProt Q9UQM7); test: Inhibition of CaMK2a at 10 uM
[7] = target: Calcium/calmodulin-dependent protein kinase type II subunit beta (Homo sapiens) (UniProt Q13554); test: Inhibition of CaMK2b at 10 uM
[8] = target: Dual specificity mitogen-activated protein kinase kinase 7 (Homo sapiens) (UniProt O14733); test: Inhibition of MAP2K7 at 10 uM
[9] = target: Testis-specific serine/threonine-protein kinase 1 (Homo sapiens) (UniProt Q9BXA7); test: Inhibition of TSSK1 at 10 uM
[10] = target: NT-3 growth factor receptor (Homo sapiens) (UniProt Q16288); test: Inhibition of TRKC at 10 uM
[11] = target: Dual specificity protein kinase CLK3 (Homo sapiens) (UniProt P49761); test: Inhibition of CLK3 at 10 uM
[12] = target: Serine/threonine-protein kinase 38 (Homo sapiens) (UniProt Q15208); test: Inhibition of NDR1 at 10 uM
[13] = system: Mast/stem cell growth factor receptor Kit (Homo sapiens), P10721 [D816V]; test: Inhibition of KIT D816V mutant at 10 uM
[14] = target: Serine/threonine-protein kinase DCLK2 (Homo sapiens) (UniProt Q8N568); test: Inhibition of DCAMKL2 at 10 uM
[15] = target: Serine/threonine-protein kinase PLK4 (Homo sapiens) (UniProt O00444); test: Inhibition of PLK4 at 10 uM
[16] = target: Serine/threonine-protein kinase TAO2 (Homo sapiens) (UniProt Q9UL54); test: Inhibition of TAOK2 at 10 uM
[17] = target: Citron Rho-interacting kinase (Homo sapiens) (UniProt O14578); test: Inhibition of CRIK at 10 uM
[18] = target: Serine/threonine-protein kinase B-raf (Homo sapiens) (UniProt P15056); test: Inhibition of BRAF at 10 uM
Chain of Serine/threonine-protein kinase B-raf (Homo sapiens) (P15056 whole entry): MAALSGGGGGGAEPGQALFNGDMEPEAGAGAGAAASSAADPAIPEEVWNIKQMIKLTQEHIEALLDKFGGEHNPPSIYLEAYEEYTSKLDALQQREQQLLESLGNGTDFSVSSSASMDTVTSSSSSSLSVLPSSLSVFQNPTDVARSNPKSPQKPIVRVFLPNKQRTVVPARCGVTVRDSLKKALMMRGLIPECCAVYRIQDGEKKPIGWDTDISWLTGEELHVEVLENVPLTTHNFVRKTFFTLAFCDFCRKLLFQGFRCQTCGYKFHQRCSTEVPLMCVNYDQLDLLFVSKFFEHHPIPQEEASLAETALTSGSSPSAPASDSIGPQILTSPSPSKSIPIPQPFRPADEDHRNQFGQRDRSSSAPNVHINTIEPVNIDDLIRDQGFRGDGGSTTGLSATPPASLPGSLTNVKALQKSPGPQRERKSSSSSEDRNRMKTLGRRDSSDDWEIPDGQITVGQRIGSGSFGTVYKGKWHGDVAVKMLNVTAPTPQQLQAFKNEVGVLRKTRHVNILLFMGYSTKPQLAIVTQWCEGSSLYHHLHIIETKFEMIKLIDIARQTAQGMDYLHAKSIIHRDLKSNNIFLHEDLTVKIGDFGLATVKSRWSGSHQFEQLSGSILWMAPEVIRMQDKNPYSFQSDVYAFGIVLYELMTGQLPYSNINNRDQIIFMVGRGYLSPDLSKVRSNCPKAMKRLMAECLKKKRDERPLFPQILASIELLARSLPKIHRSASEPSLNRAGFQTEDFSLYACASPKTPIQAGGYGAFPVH

[19] = target: Glycogen synthase kinase-3 alpha (Homo sapiens) (UniProt P49840); test: Inhibition of GSK3a at 10 uM
[20] = target: Sphingosine kinase 1 (Homo sapiens) (UniProt Q9NYA1); test: Inhibition of SPHK1 at 10 uM
[21] = target: Tyrosine-protein kinase TXK (Homo sapiens) (UniProt P42681); test: Inhibition of TXK at 10 uM
[22] = target: Cyclin-dependent kinase 1/cyclin B1 (Homo sapiens) (UniProt P06493+P14635); test: Inhibition of CDC2-CycB1 at 10 uM; type: protein-complex assay
[23] = target: Tyrosine-protein kinase HCK (Homo sapiens) (UniProt P08631); test: Inhibition of HCK at 10 uM
[24] = target: cGMP-dependent protein kinase 1 (Homo sapiens) (UniProt Q13976); test: Inhibition of PRKG1 at 10 uM
[25] = target: NPM/ALK (Nucleophosmin/ALK tyrosine kinase receptor) (Homo sapiens) (UniProt Q9UM73+P06748); test: Inhibition of NPM1-ALK at 10 uM; type: protein-complex assay
[26] = target: LIM domain kinase 1 (Homo sapiens) (UniProt P53667); test: Inhibition of LIMK1 at 10 uM
[27] = target: Tyrosine-protein kinase Fer (Homo sapiens) (UniProt P16591); test: Inhibition of FER at 10 uM
[28] = target: Mitogen-activated protein kinase 14 (Homo sapiens) (UniProt Q16539); test: Inhibition of p38alpha at 10 uM
[29] = target: RAC-gamma serine/threonine-protein kinase (Homo sapiens) (UniProt Q9Y243); test: Inhibition of AKT3 at 10 uM
[30] = system: Epidermal growth factor receptor (Homo sapiens), P00533 [T790M]; test: Inhibition of EGFR T790M mutant at 10 uM; type: protein assay
Chain of Epidermal growth factor receptor (Homo sapiens), P00533 [T790M] (P00533 whole entry T790M): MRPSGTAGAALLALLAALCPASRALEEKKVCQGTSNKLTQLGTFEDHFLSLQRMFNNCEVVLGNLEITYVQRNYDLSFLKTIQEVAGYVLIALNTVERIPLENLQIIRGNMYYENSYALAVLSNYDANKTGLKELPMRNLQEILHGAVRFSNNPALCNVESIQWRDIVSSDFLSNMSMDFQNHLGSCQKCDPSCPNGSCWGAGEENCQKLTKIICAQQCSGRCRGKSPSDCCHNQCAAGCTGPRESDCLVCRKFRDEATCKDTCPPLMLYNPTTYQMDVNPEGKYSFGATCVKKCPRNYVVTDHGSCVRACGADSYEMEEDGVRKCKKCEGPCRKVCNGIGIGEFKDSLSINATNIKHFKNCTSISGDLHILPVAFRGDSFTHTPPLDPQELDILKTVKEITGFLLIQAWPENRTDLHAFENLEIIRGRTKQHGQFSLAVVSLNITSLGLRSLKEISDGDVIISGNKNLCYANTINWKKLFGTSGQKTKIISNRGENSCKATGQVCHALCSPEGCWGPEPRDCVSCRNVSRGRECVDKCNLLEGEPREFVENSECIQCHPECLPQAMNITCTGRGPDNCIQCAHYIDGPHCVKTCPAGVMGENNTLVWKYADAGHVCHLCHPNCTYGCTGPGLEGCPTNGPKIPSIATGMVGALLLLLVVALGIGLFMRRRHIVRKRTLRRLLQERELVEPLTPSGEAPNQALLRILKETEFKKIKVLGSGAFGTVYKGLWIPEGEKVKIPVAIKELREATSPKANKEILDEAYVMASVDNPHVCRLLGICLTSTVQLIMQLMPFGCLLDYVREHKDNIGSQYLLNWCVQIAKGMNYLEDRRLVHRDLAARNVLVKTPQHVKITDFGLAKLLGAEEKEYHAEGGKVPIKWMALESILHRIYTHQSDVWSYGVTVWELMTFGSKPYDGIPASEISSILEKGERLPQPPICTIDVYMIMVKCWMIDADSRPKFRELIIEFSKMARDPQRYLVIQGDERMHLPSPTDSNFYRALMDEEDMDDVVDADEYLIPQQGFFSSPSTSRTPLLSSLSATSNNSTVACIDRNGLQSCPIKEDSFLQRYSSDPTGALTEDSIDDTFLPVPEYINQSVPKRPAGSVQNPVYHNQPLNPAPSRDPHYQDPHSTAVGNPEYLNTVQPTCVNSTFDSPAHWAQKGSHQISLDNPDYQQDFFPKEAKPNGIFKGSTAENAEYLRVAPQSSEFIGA

[31] = target: MAP kinase-interacting serine/threonine-protein kinase 2 (Homo sapiens) (UniProt Q9HBH9); test: Inhibition of MNK2 at 10 uM
[32] = target: NUAK family SNF1-like kinase 2 (Homo sapiens) (UniProt Q9H093); test: Inhibition of NuaK2 at 10 uM
[33] = target: Tyrosine-protein kinase Blk (Homo sapiens) (UniProt P51451); test: Inhibition of BLK at 10 uM
[34] = target: Inhibitor of nuclear factor kappa-B kinase subunit beta (Homo sapiens) (UniProt O14920); test: Inhibition of IKKb at 10 uM
[35] = target: Epithelial discoidin domain-containing receptor 1 (Homo sapiens) (UniProt Q08345); test: Inhibition of DDR1 at 10 uM
[36] = target: Megakaryocyte-associated tyrosine-protein kinase (Homo sapiens) (UniProt P42679); test: Inhibition of CTK at 10 uM
[37] = target: RAC-alpha serine/threonine-protein kinase (Homo sapiens) (UniProt P31749); test: Inhibition of AKT1 at 10 uM
[38] = target: Calcium/calmodulin-dependent protein kinase type 1D (Homo sapiens) (UniProt Q8IU85); test: Inhibition of CaMK1d at 10 uM
[39] = target: CDK9/cyclin T1 (Homo sapiens) (UniProt O60563+P50750); test: Inhibition of CDK9-CycT1 at 10 uM; type: protein-complex assay
[40] = target: Protein-tyrosine kinase 2-beta (Homo sapiens) (UniProt Q14289); test: Inhibition of PYK2 at 10 uM
[41] = target: MAP kinase-activated protein kinase 2 (Homo sapiens) (UniProt P49137); test: Inhibition of MAPKAPK2 at 10 uM
[42] = target: Tyrosine-protein kinase JAK1 (Homo sapiens) (UniProt P23458); test: Inhibition of JAK1 at 10 uM
[43] = target: Serine/threonine-protein kinase PAK 3 (Homo sapiens) (UniProt O75914); test: Inhibition of PAK3 at 10 uM
[44] = target: Aurora kinase A/Targeting protein for Xklp2 (Homo sapiens) (UniProt O14965+Q9ULW0); test: Inhibition of AurA-TPX2 at 10 uM; type: protein-complex assay
[45] = target: Serine/threonine-protein kinase BRSK1 (Homo sapiens) (UniProt Q8TDC3); test: Inhibition of BRSK1 at 10 uM
Chain of Serine/threonine-protein kinase BRSK1 (Homo sapiens) (Q8TDC3 whole entry): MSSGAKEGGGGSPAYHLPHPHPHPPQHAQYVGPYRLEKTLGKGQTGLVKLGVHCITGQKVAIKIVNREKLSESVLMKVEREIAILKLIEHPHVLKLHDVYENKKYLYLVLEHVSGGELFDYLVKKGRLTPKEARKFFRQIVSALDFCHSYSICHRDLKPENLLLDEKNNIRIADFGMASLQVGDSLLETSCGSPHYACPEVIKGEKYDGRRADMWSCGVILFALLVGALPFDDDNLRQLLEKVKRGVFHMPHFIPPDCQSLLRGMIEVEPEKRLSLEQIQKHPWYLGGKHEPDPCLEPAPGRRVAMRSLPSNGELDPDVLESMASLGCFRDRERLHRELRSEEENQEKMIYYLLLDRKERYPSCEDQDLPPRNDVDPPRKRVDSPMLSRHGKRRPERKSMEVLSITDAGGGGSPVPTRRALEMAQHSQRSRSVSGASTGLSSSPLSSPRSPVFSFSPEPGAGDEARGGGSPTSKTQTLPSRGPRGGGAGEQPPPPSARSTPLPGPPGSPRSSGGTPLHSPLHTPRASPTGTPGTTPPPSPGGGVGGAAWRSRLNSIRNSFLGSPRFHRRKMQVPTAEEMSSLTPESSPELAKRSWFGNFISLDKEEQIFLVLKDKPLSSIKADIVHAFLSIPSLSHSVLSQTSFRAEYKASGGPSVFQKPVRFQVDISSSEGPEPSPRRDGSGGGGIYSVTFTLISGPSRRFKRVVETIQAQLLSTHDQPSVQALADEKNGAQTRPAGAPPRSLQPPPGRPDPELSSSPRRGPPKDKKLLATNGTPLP

[46] = target: Tyrosine-protein kinase FRK (Homo sapiens) (UniProt P42685); test: Inhibition of FRK at 10 uM
Chain of Tyrosine-protein kinase FRK (Homo sapiens) (P42685 whole entry): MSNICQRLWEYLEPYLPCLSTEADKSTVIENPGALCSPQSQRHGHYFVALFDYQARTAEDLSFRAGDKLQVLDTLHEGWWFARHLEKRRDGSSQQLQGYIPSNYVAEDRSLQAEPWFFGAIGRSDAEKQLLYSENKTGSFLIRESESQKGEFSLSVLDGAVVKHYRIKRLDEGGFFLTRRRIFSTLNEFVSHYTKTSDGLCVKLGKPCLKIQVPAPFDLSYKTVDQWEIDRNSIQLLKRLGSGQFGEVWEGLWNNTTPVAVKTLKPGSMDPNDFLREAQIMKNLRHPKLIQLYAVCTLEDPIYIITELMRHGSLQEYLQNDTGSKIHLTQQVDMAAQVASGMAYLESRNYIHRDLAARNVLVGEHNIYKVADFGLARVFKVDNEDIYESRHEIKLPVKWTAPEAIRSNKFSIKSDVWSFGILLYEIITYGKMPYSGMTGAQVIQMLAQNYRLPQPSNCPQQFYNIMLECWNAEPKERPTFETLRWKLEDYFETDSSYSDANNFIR

Chain of Ephrin type-A receptor 7 (Homo sapiens) (Q15375 28-998 limits assumed): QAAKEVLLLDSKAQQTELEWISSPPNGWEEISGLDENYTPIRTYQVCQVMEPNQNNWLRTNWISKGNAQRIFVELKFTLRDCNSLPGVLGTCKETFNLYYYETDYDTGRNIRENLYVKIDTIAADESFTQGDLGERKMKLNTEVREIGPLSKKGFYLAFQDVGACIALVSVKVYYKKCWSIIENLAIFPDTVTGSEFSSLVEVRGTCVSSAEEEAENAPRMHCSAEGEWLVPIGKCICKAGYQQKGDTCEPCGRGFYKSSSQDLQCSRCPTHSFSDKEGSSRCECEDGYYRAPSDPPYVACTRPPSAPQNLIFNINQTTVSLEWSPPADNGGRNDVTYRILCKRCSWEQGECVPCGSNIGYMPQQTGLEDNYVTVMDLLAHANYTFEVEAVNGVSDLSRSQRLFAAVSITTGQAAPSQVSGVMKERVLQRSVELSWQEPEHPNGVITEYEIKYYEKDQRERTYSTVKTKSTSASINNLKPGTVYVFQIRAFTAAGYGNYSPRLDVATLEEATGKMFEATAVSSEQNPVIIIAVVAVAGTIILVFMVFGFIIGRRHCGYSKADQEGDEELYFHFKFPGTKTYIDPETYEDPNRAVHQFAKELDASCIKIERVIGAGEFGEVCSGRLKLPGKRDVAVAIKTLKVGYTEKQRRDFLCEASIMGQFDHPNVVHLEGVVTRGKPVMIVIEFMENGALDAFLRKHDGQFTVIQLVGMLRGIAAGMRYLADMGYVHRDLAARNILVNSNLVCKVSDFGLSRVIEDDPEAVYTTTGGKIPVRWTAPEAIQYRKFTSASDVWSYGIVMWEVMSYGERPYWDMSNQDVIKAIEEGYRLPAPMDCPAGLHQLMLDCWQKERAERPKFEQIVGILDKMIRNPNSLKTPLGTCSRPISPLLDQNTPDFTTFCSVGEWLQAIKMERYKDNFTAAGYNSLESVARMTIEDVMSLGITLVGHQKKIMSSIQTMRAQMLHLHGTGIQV

Structure (SMILES): COc1ccc2c3ccnc(C(F)(F)F)c3n(CCCCN)c2c1
- inhibition [1]: 26%
- inhibition [2]: 2%
- inhibition [3]: 25%
- inhibition [4]: 28%
- inhibition [5]: 0%
- inhibition [6]: 53%
- inhibition [7]: 91%
- inhibition [8]: 15%
- inhibition [9]: 43%
- inhibition [10]: 25%
- inhibition [11]: 37%
- inhibition [12]: 4%
- inhibition [13]: 32%
- inhibition [14]: 4%
- inhibition [15]: 22%
- inhibition [16]: 4%
- inhibition [17]: 86%
- inhibition [18]: 0%
- inhibition [19]: 48%
- inhibition [20]: 0%
- inhibition [21]: 8%
- inhibition [22]: 55%
- inhibition [23]: 1%
- inhibition [24]: 80%
- inhibition [25]: 4%
- inhibition [26]: 8%
- inhibition [27]: 8%
- inhibition [28]: 1%
- inhibition [29]: 12%
- inhibition [30]: 3%
- inhibition [31]: 34%
- inhibition [32]: 27%
- inhibition [33]: 4%
- inhibition [34]: 30%
- inhibition [35]: 8%
- inhibition [36]: 25%
- inhibition [37]: 23%
- inhibition [38]: 4%
- inhibition [39]: 79%
- inhibition [40]: 0%
- inhibition [41]: 7%
- inhibition [42]: 0%
- inhibition [43]: 27%
- inhibition [44]: 0%
- inhibition [45]: 34%
- inhibition [46]: 10%
